The values that follow are results of earlier work, collected in patent US20050277597A1, “Use of N-L-alpha-aspartyl-L-phenylalanine 1-methyl ester to treat sunburn and other burns” (Oklahoma Medical Research Foundation, priority 2004, published 2005).

Where a SMILES comes first, the peptide text is derived from it.

For `COC(=O)[C@H](Cc1ccccc1)NC(=O)[C@@H](N)CC(=O)O` [aspartame, N-L-aspartyl-L-phenyalanine 1-methyl ester] (H-Asp-Phe-OMe), where the note is “pH 2.2, 25° C.”, the “maximum solubility in water” value was 20 mg/mL. The “minimum solubility in water” value (pH 5.2 (pHi), 25° C.) was 13.5 mg/mL.
